≈ marks a conversion by molar mass, not a printed value.
Key:
C. albicans (ATCC 90028) = test: Minimum inhibitory concentration, in vitro broth microdilution assay (CLSI M27-A2); assay type: cell-based, Candida albicans; details: Candida albicans, ATCC90028, 48 h, ATCC 90028; about 50% growth reduction; 2 days at 36° C.; range tested 8-0.0078 μg/mL; values given as ranges; read-out: Candida albicans MIC
Description: The antifungal potency of the test compounds was measured using the in vitro broth microdilution assay under assay conditions described by the Clinical and Laboratory Standards Institute (CLSI M27-A2). The test compounds were dissolved in 100% DMSO, suspended completely by sonication or vortexing, diluted by 2-fold serial titrations in the same vehicle, for a total of 11 test concentrations. A 4 μL aliquot of each dilution was added to 196 μL of RPMI-1640+MOPS medium seeded with the C. albicans (ATCC 90028) suspension in wells of a 96 well plate (fungal cell count: 1×10^3 to 1×10^4 colony forming units per mL). The final volume was 200 μL in each well and the final DMSO concentration was 2 percent. The inoculated plates were incubated for 2 days at 36° C. Following incubation, the test plates were visually examined and wells were scored for growth to define the minimum inhibitory concentration. […] Each test substance was evaluated in duplicate. Vehicle-control and an active reference agent (e.g., posaconazole) were used as blank and positive controls, respectively.

A. fumigatus = A. fumigatus MIC at 100% growth inhibition (CLSI M38-A2); assay type: cell-based, Aspergillus fumigatus; details: Aspergillus fumigatus, 100% growth inhibition; range tested 8-0.0078 μg/mL; values given as ranges; read-out: Aspergillus fumigatus MIC
Description: A. fumigatus MICs were determined at 100% growth inhibition following CLSI guidelines at a concentration range of 8-0.0078 μg/mL (CLSI M38-A2).

N#Cc1ccc(C2CCN(c3ccc(-c4ccc(C(F)(F)[C@](O)(Cn5cnnn5)c5ccc(F)cc5F)nc4)cc3)CC2)cc1 [Example 26, (R)-4-(1-(4-(6-(2-(2,4-difluorophenyl)-1,1-difluoro-2-hydroxy-3-(1H-tetrazol-1-yl)propyl)pyridin-3-yl)phenyl)piperidin-4-yl) benzonitrile] was tested, and the MIC (C. albicans (ATCC 90028)) was 0.0078 to 0.01 µg/mL (≈ 0.0127 to 0.0163 µM) and the MIC (A. fumigatus) was 0.25 to 1 µg/mL (≈ 0.407 to 1.63 µM).

For N#Cc1ccc(N2CCN(Cc3ccc(-c4ccc(C(F)(F)[C@](O)(Cn5cnnn5)c5ccc(F)cc5F)nc4)cc3)C(=O)C2)cc1 [Example 27, (R)-4-(4-(4-(6-(2-(2,4-difluorophenyl)-1,1-difluoro-2-hydroxy-3-(1H-tetrazol-1-yl)propyl)pyridin-3-yl)benzyl)-3-oxopiperazin-1-yl) benzonitrile], the MIC (C. albicans (ATCC 90028)) was 0.01 to 0.1 µg/mL (≈ 0.0156 to 0.156 µM) and the MIC (A. fumigatus) was over 8 µg/mL.

Work on O=Cc1ccc(N2CCN(c3ccc(-c4ccc(C(F)(F)[C@](O)(Cn5cnnn5)c5ccc(F)cc5F)nc4)cc3)CC2)cc1 [Example 29, (R)-4-(4-(4-(6-(2-(2,4-difluorophenyl)-1,1-difluoro-2-hydroxy-3-(1H-tetrazol-1-yl)propyl)pyridin-3-yl)phenyl)piperazin-1-yl) benzaldehyde] yielded an MIC (C. albicans (ATCC 90028)) of 0.01 to 0.1 µg/mL (≈ 0.0162 to 0.162 µM) and an MIC (A. fumigatus) of over 8 µg/mL.

In the case of CN(C)Cc1ccc(N2CCN(c3ccc(-c4ccc(C(F)(F)[C@](O)(Cn5cnnn5)c5ccc(F)cc5F)nc4)cc3)CC2)cc1 [Example 30], the MIC (C. albicans (ATCC 90028)) is reported as 0.0078 to 0.01 µg/mL (≈ 0.0121 to 0.0155 µM) and the MIC (A. fumigatus) is reported as 0.25 to 1 µg/mL (≈ 0.387 to 1.55 µM).

In the case of O=Cc1ccc(N2CCN(c3ccc(-c4ccc(C(F)(F)[C@](O)(Cn5cnnn5)c5ccc(F)cc5F)nc4)cc3)CC2)cn1 [Example 32, (R)-5-(4-(4-(6-(2-(2,4-difluorophenyl)-1,1-difluoro-2-hydroxy-3-(1H-tetrazol-1-yl)propyl)pyridin-3-yl)phenyl)piperazin-1-yl) picolinaldehyde], the MIC (C. albicans (ATCC 90028)) is reported as 0.1 to 1 µg/mL (≈ 0.162 to 1.62 µM) and the MIC (A. fumigatus) is reported as 0.25 to 1 µg/mL (≈ 0.404 to 1.62 µM).

CN(C)Cc1ccc(N2CCN(c3ccc(-c4ccc(C(F)(F)[C@](O)(Cn5cnnn5)c5ccc(F)cc5F)nc4)cc3)CC2)cn1 [Example 33, (R)-2-(2,4-difluorophenyl)-1-(5-(4-(4-(6-((dimethylamino)methyl)pyridin-3-yl)piperazin-1-yl)phenyl)pyridin-2-yl)-1,1-difluoro-3-(1H-tetrazol-1-yl) propan-2-ol] gave an MIC (C. albicans (ATCC 90028)) of 0.01 to 0.1 µg/mL (≈ 0.0154 to 0.154 µM) and an MIC (A. fumigatus) of 1 to 4 µg/mL (≈ 1.54 to 6.18 µM).

OC(c1ccc(N2CCN(c3ccc(-c4ccc(C(F)(F)[C@](O)(Cn5cnnn5)c5ccc(F)cc5F)nc4)cc3)CC2)nc1)C(F)(F)F (stereo partly drawn) [Example 34, (2R)-2-(2,4-difluorophenyl)-1,1-difluoro-3-(1H-tetrazol-1-yl)-1-(5-(4-(4-(5-(2,2,2-trifluoro-1-hydroxyethyl)pyridin-2-yl)piperazin-1-yl)phenyl)pyridin-2-yl) propan-2-ol] gave an MIC (C. albicans (ATCC 90028)) of 0.0078 to 0.01 µg/mL (≈ 0.0113 to 0.0145 µM) and an MIC (A. fumigatus) of 0.25 to 1 µg/mL (≈ 0.363 to 1.45 µM).

For O[C@@](Cn1cnnn1)(c1ccc(F)cc1F)C(F)(F)c1ccc(-c2ccc(N3CCN(c4ccc5[nH]c(C(F)(F)F)nc5c4)CC3)cc2)cn1 [Example 35, (R)-2-(2,4-difluorophenyl)-1,1-difluoro-3-(1H-tetrazol-1-yl)-1-(5-(4-(4-(2-(trifluoromethyl)-1H-benzo [d]imidazol-5-yl)piperazin-1-yl)phenyl)pyridin-2-yl) propan-2-ol], the MIC (C. albicans (ATCC 90028)) was 0.0078 to 0.01 µg/mL (≈ 0.0112 to 0.0143 µM) and the MIC (A. fumigatus) was 0.25 to 1 µg/mL (≈ 0.358 to 1.43 µM).

Work on CCC(C(C)O)n1ccc(N2CCN(c3ccc(-c4ccc(C(F)(F)[C@](O)(Cn5cnnn5)c5ccc(F)cc5F)nc4)cc3)CC2)cc1=O (stereo partly drawn) [Example 37, 4-(4-(4-(6-((R)-2-(2,4-difluorophenyl)-1,1-difluoro-2-hydroxy-3-(1H-tetrazol-1-yl)propyl)pyridin-3-yl)phenyl)piperazin-1-yl)-1-(2-hydroxypentan-3-yl) pyridin-2(1H)-one] yielded an MIC (C. albicans (ATCC 90028)) of 0.01 to 0.1 µg/mL (≈ 0.0144 to 0.144 µM) and an MIC (A. fumigatus) of over 8 µg/mL.

CCC(O)c1ccc(N2CCN(c3ccc(-c4ccc(C(F)(F)[C@](O)(Cn5cnnn5)c5ccc(F)cc5F)nc4)cc3)CC2)cc1 (some centres unmarked) [Example 39] showed an MIC (C. albicans (ATCC 90028)) of 0.01 to 0.1 µg/mL (≈ 0.0154 to 0.154 µM) and an MIC (A. fumigatus) of 0.25 to 1 µg/mL (≈ 0.386 to 1.54 µM).

CC(C)C(O)c1ccc(N2CCN(c3ccc(-c4ccc(C(F)(F)[C@](O)(Cn5cnnn5)c5ccc(F)cc5F)nc4)cc3)CC2)cc1 (stereo partly drawn) [Example 40, 1-(4-(4-(4-(6-((R)-2-(2,4-difluorophenyl)-1,1-difluoro-2-hydroxy-3-(1H-tetrazol-1-yl)propyl)pyridin-3-yl)phenyl)piperazin-1-yl)phenyl)-2-methylpropan-1-ol] gave an MIC (C. albicans (ATCC 90028)) of 0.0078 to 0.01 µg/mL (≈ 0.0118 to 0.0151 µM) and an MIC (A. fumigatus) of 0.25 to 1 µg/mL (≈ 0.378 to 1.51 µM).

CC(C)CC(O)c1ccc(N2CCN(c3ccc(-c4ccc(C(F)(F)[C@](O)(Cn5cnnn5)c5ccc(F)cc5F)nc4)cc3)CC2)cc1 (stereo partly drawn) [Example 41, 1-(4-(4-(4-(6-((R)-2-(2,4-difluorophenyl)-1,1-difluoro-2-hydroxy-3-(1H-tetrazol-1-yl)propyl)pyridin-3-yl)phenyl)piperazin-1-yl)phenyl)-3-methylbutan-1-ol] gave an MIC (C. albicans (ATCC 90028)) of 0.0078 to 0.01 µg/mL (≈ 0.0115 to 0.0148 µM) and an MIC (A. fumigatus) of 0.25 to 1 µg/mL (≈ 0.37 to 1.48 µM).

OC(c1ccc(N2CCN(c3ccc(-c4ccc(C(F)(F)[C@](O)(Cn5cnnn5)c5ccc(F)cc5F)nc4)cc3)CC2)cc1)C1CC1 (stereo partly drawn) [Example 42, (2R)-1-(5-(4-(4-(4-(cyclopropyl (hydroxy)methyl)phenyl)piperazin-1-yl)phenyl)pyridin-2-yl)-2-(2,4-difluorophenyl)-1,1-difluoro-3-(1H-tetrazol-1-yl) propan-2-ol] showed an MIC (C. albicans (ATCC 90028)) of 0.0078 to 0.01 µg/mL (≈ 0.0118 to 0.0152 µM) and an MIC (A. fumigatus) of over 8 µg/mL.

CC(C)(C)C(O)c1ccc(N2CCN(c3ccc(-c4ccc(C(F)(F)[C@](O)(Cn5cnnn5)c5ccc(F)cc5F)nc4)cc3)CC2)cc1 (stereo partly drawn) [Example 43, 1-(4-(4-(4-(6-((R)-2-(2,4-difluorophenyl)-1,1-difluoro-2-hydroxy-3-(1H-tetrazol-1-yl)propyl)pyridin-3-yl)phenyl)piperazin-1-yl)phenyl)-2,2-dimethylpropan-1-ol] was tested, and the MIC (C. albicans (ATCC 90028)) was 0.0078 to 0.01 µg/mL (≈ 0.0115 to 0.0148 µM) and the MIC (A. fumigatus) was 0.25 to 1 µg/mL (≈ 0.37 to 1.48 µM).

For CC(O)c1ccc(N2CCN(c3ccc(-c4ccc(C(F)(F)[C@](O)(Cn5cnnn5)c5ccc(F)cc5F)nc4)cc3)CC2)cn1 (stereo partly drawn) [Example 44, (2R)-2-(2,4-difluorophenyl)-1,1-difluoro-1-(5-(4-(4-(6-(1-hydroxyethyl)pyridin-3-yl)piperazin-1-yl)phenyl)pyridin-2-yl)-3-(1H-tetrazol-1-yl) propan-2-ol], the MIC (C. albicans (ATCC 90028)) was 0.0078 to 0.01 µg/mL (≈ 0.0123 to 0.0158 µM) and the MIC (A. fumigatus) was 1 to 4 µg/mL (≈ 1.58 to 6.3 µM).

Compound CC(C)C(O)c1ccc(N2CCN(c3ccc(-c4ccc(C(F)(F)[C@](O)(Cn5cnnn5)c5ccc(F)cc5F)nc4)cc3)CC2)cn1 (stereo partly drawn) [Example 45, 1-(5-(4-(4-(6-((R)-2-(2,4-difluorophenyl)-1,1-difluoro-2-hydroxy-3-(1H-tetrazol-1-yl)propyl)pyridin-3-yl)phenyl)piperazin-1-yl)pyridin-2-yl)-2-methylpropan-1-ol] has an MIC (C. albicans (ATCC 90028)) of 0.0078 to 0.01 µg/mL (≈ 0.0118 to 0.0151 µM) and an MIC (A. fumigatus) of 0.25 to 1 µg/mL (≈ 0.377 to 1.51 µM).

OC(c1ccc(N2CCN(c3ccc(-c4ccc(C(F)(F)[C@](O)(Cn5cnnn5)c5ccc(F)cc5F)nc4)cc3)CC2)cn1)C1CC1 (some centres unmarked) [Example 46] was tested, and the MIC (C. albicans (ATCC 90028)) was 0.0078 to 0.01 µg/mL (≈ 0.0118 to 0.0151 µM) and the MIC (A. fumigatus) was over 8 µg/mL.

CC(C)(O)c1ccc(N2CCN(c3ccc(-c4ccc(C(F)(F)[C@](O)(Cn5cnnn5)c5ccc(F)cc5F)nc4)cc3)CC2)cn1 [Example 47, (R)-2-(2,4-difluorophenyl)-1,1-difluoro-1-(5-(4-(4-(6-(2-hydroxypropan-2-yl)pyridin-3-yl)piperazin-1-yl)phenyl)pyridin-2-yl)-3-(1H-tetrazol-1-yl) propan-2-ol] was tested, and the MIC (C. albicans (ATCC 90028)) was 0.01 to 0.1 µg/mL (≈ 0.0154 to 0.154 µM) and the MIC (A. fumigatus) was 0.25 to 1 µg/mL (≈ 0.385 to 1.54 µM).

Compound CCC(O)c1ccc(N2CCN(c3ccc(-c4ccc(C(F)(F)[C@](O)(Cn5cnnn5)c5ccc(F)cc5F)nc4)cc3)CC2)cn1 (stereo partly drawn) [Example 48, 1-(5-(4-(4-(6-((R)-2-(2,4-difluorophenyl)-1,1-difluoro-2-hydroxy-3-(1H-tetrazol-1-yl)propyl)pyridin-3-yl)phenyl)piperazin-1-yl)pyridin-2-yl)propan-1-ol] has an MIC (C. albicans (ATCC 90028)) of 0.01 to 0.1 µg/mL (≈ 0.0154 to 0.154 µM) and an MIC (A. fumigatus) of 0.25 to 1 µg/mL (≈ 0.385 to 1.54 µM).

Compound CC(C)CC(O)c1ccc(N2CCN(c3ccc(-c4ccc(C(F)(F)[C@](O)(Cn5cnnn5)c5ccc(F)cc5F)nc4)cc3)CC2)cn1 (stereo partly drawn) [Example 49, 1-(5-(4-(4-(6-((R)-2-(2,4-difluorophenyl)-1,1-difluoro-2-hydroxy-3-(1H-tetrazol-1-yl)propyl)pyridin-3-yl)phenyl)piperazin-1-yl)pyridin-2-yl)-3-methylbutan-1-ol] has an MIC (C. albicans (ATCC 90028)) of 0.01 to 0.1 µg/mL (≈ 0.0148 to 0.148 µM) and an MIC (A. fumigatus) of 0.062 to 0.25 µg/mL (≈ 0.0916 to 0.369 µM).

In the case of CC(C)(C)C(O)c1ccc(N2CCN(c3ccc(-c4ccc(C(F)(F)[C@](O)(Cn5cnnn5)c5ccc(F)cc5F)nc4)cc3)CC2)cn1 (stereo partly drawn) [Example 50, 1-(5-(4-(4-(6-((R)-2-(2,4-difluorophenyl)-1,1-difluoro-2-hydroxy-3-(1H-tetrazol-1-yl)propyl)pyridin-3-yl)phenyl)piperazin-1-yl)pyridin-2-yl)-2,2-dimethylpropan-1-ol], the MIC (C. albicans (ATCC 90028)) is reported as 0.01 to 0.1 µg/mL (≈ 0.0148 to 0.148 µM) and the MIC (A. fumigatus) is reported as 0.25 to 1 µg/mL (≈ 0.369 to 1.48 µM).

Compound OC(CC(F)(F)F)c1ncc(N2CCN(c3ccc(-c4ccc(C(F)(F)[C@](O)(Cn5cnnn5)c5ccc(F)cc5F)nc4)cc3)CC2)cn1 (stereo partly drawn) [Example 51, 1-(5-(4-(4-(6-((R)-2-(2,4-difluorophenyl)-1,1-difluoro-2-hydroxy-3-(1H-tetrazol-1-yl)propyl)pyridin-3-yl)phenyl)piperazin-1-yl)pyrimidin-2-yl)-3,3,3-trifluoropropan-1-ol] has an MIC (C. albicans (ATCC 90028)) of 0.0078 to 0.01 µg/mL (≈ 0.0111 to 0.0142 µM) and an MIC (A. fumigatus) of 1 to 4 µg/mL (≈ 1.42 to 5.68 µM).
